Data from patent publication US20260226034A1 (The Rockefeller University, priority 2023, published 2026).

Target: NSP14 (Severe acute respiratory syndrome coronavirus 2, UniProt P0DTD1)
Experiment: NSP14 MTase inhibition assay at 37° C. (MTase-Glo SAH detection)
Assay type: biochemical, SARS-CoV-2
Settings: 37° C., 0.3 nM NSP14, 2.5 μM SAM, 2.5 μM GpppA RNA; read-out: Nsp14 Mtase Inh. IC50

Structure (SMILES) | IC50 [nM]
Cc1c(S(=O)(=O)c2cc(F)c3[nH]ncc3c2)cc(C(=O)NCc2c[nH]c(=O)c3ccccc23)n1C [B.109] | 0.24
Cc1c(S(=O)(=O)c2ccc3c(c2)c(O)nn3C)cc(C(=O)NCc2c(F)ccc3cnn(C4CC4)c23)n1C [B.111] | 142
COc1nccc(F)c1CNC(=O)c1cc(S(=O)(=O)c2ccc3[nH]ncc3c2)c(C)n1C [B.112] | < 0.15
Cc1c(S(=O)(=O)c2ccc3[nH]ncc3c2)cc(C(=O)NCc2c(F)cc[nH]c2=O)n1C [B.113] | 0.34
Cc1c(S(=O)(=O)c2ccc3[nH]ncc3c2)cc(C(=O)NCc2c(F)cc(CCN(C)C)cc2F)n1C [B.114] | 184
Cc1c(S(=O)(=O)c2ccc3[nH]ncc3c2)cc(C(=O)NCc2c[nH]c(=O)c3cnn(C)c23)n1C [B.115] | 0.17
Cc1cc[nH]c(=O)c1CNC(=O)c1cc(S(=O)(=O)c2ccc3[nH]ncc3c2)c(C)n1C [B.116] | 4.6
Cc1c(S(=O)(=O)c2ccc3[nH]ncc3c2)cc(C(=O)NCc2nccc3ncn(C4CC4)c23)n1C [B.117] | 0.18
Cc1c(S(=O)(=O)c2ccc3[nH]ncc3c2)cc(C(=O)NCc2nccc3cnn(C4CC4)c23)n1C [B.118] | 0.48
Cc1c(S(=O)(=O)c2ccc3[nH]ncc3c2)cc(C(=O)NCc2c(F)ccc3c2N(C)C(=O)C3(C)C)n1C [B.119] | 0.21
Cc1c(S(=O)(=O)c2ccc3[nH]ncc3c2)cc(C(=O)NC2Cc3ccccc32)n1C (centres unmarked) [B.120] | 1.2
Cc1c(S(=O)(=O)c2ccc3[nH]ncc3c2)cc(C(=O)NCc2n[nH]c(=O)c3ccccc23)n1C [B.121] | < 0.15
Cc1c(S(=O)(=O)c2ccc3[nH]nc(F)c3c2)cc(C(=O)NC(c2ccccc2)C(F)(F)F)n1C (centres unmarked) [B.122] | 70
Cc1c(S(=O)(=O)c2ccc3[nH]ncc3c2)cc(C(=O)NCc2c(F)ccc(OCc3ccc(C(=O)O)cc3)c2F)n1C [B.123] | < 0.15
Cc1[nH]c(=O)c2ccccc2c1CNC(=O)c1cc(S(=O)(=O)c2ccc3[nH]nc(F)c3c2)c(C)n1C [B.124] | 0.36
Cc1c(S(=O)(=O)c2ccc3[nH]ncc3c2)cc(C(=O)NCc2c(F)ccc(OCCCCC(=O)O)c2F)n1C [B.125] | < 0.15
Cc1c(S(=O)(=O)c2ccc3[nH]nc(F)c3c2)cc(C(=O)NC(c2ccccc2)c2ccccc2)n1C [B.126] | 108
Cc1c(S(=O)(=O)c2ccc3ccc(C#N)cc3c2)cc(C(=O)NCc2c(F)ccc3cnn(C)c23)n1C [B.128] | 0.93
Cc1c(S(=O)(=O)c2ccc3[nH]ncc3c2)cc(C(=O)NCc2ncnc3ncn(C)c23)n1C [B.129] | < 0.15
Cc1c(S(=O)(=O)c2ccc3[nH]ncc3c2)cc(C(=O)NCc2c[nH]c(=O)c3cnccc23)n1C [B.130] | < 0.15
Cc1c(S(=O)(=O)c2ccc3[nH]ncc3c2)cc(C(=O)NCc2nccn2C)n1C [B.131] | 79
Cc1c(S(=O)(=O)c2ccc3[nH]ncc3c2)cc(C(=O)NCc2c[nH]c3ncccc23)n1C [B.132] | 0.6
Cc1c(S(=O)(=O)c2ccc3[nH]ncc3c2)cc(C(=O)NCc2ccc(=O)n(C)n2)n1C [B.133] | 7.6
Cc1c(S(=O)(=O)c2cc(Cl)c3[nH]ncc3c2)cc(C(=O)NCc2ccnn2C)n1C [B.134] | 0.18
Cc1c(S(=O)(=O)c2ccc3c(=O)[nH]ccc3c2)cc(C(=O)NCc2c(F)ccc3cnn(C4CC4)c23)n1C [B.136] | < 0.15
Cc1c(S(=O)(=O)c2cc(F)c3[nH]ncc3c2)cc(C(=O)NCc2ccnn2C)n1C [B.137] | 10

Structure (SMILES) | IC50 [nM]
Cc1c(S(=O)(=O)c2ccc3[nH]ncc3c2)cc(C(=O)NCc2cnc3ccccn23)n1C [B.138] | 6.3
Cc1c(S(=O)(=O)c2ccc3[nH]ncc3c2)cc(C(=O)NCc2ccn3nccc3c2)n1C [B.141] | 16
Cc1c(S(=O)(=O)c2ccc3[nH]ncc3c2)cc(C(=O)NCc2c(Cl)cnn2C)n1C [B.142] | 1.4
Cc1c(S(=O)(=O)c2ccc3[nH]ncc3c2Cl)cc(C(=O)NCc2c(F)ccc3c2N(C)C(=O)C32CC2)n1C [B.143] | 0.4
Cc1c(S(=O)(=O)c2cc(C(F)(F)F)c3[nH]ncc3c2)cc(C(=O)NCc2c(F)ccc3nnn(C4CC4)c23)n1C [B.144] | 1
Cc1c(S(=O)(=O)c2ccc3[nH]ncc3c2)cc(C(=O)NCc2c(F)ccc3c2N(C)C(=O)C32CC2)n1C [B.145] | < 0.15
Cc1c(S(=O)(=O)c2ccc3[nH]ncc3c2)cc(C(=O)NCc2cncn2C)n1C [B.146] | 29
Cc1cc(CNC(=O)c2cc(S(=O)(=O)c3ccc4[nH]ncc4c3)c(C)n2C)n(C)n1 [B.147] | 145
Cc1c(S(=O)(=O)c2ccc3[nH]ncc3c2)cc(C(=O)NCc2cccn3ncnc23)n1C [B.148] | 7.4
Cc1c(S(=O)(=O)c2ccc3[nH]ncc3c2)cc(C(=O)NCc2ccc3ncnn3c2)n1C [B.149] | 18
Cc1ncoc1CNC(=O)c1cc(S(=O)(=O)c2ccc3[nH]ncc3c2)c(C)n1C [B.150] | 14
O=C(O)CCn1ncc2ccc(F)c(CNC(=O)c3cc(S(=O)(=O)c4cc(Cl)c5[nH]ncc5c4)c4n3CCC4)c21 [B.151] | < 0.15
Cc1nn(C)cc1CNC(=O)c1cc(S(=O)(=O)c2ccc3[nH]ncc3c2)c(C)n1C [B.152] | 20
Cc1c(S(=O)(=O)c2cc(Cl)c3[nH]ncc3c2)cc(C(=O)NCc2c(F)ccc3nnn(C4CC4)c23)n1C [B.153] | < 0.15
Cc1c(S(=O)(=O)c2ccc3[nH]ncc3c2)cc(C(=O)NCc2c(F)cnn2C)n1C [B.154] | 0.56
Cc1c(S(=O)(=O)c2ccc3[nH]ncc3c2)cc(C(=O)NCc2c[nH]c(=O)c3ncccc23)n1C [B.155] | 0.3
Cc1c(S(=O)(=O)c2ccc3[nH]ncc3c2)cc(C(=O)NCc2cn(C)c(=O)cn2)n1C [B.156] | 6
Cc1c(S(=O)(=O)c2ccc3[nH]ncc3c2)cc(C(=O)NCc2c[nH]c(=O)c3cccnc23)n1C [B.159] | 0.43
Cc1c(S(=O)(=O)c2ccc3[nH]ncc3c2)cc(C(=O)NCc2ccn(C(F)F)n2)n1C [B.160] | 149
Cc1cc(C)c(CNC(=O)c2cc(S(=O)(=O)c3ccc4[nH]ncc4c3)c(C)n2C)c(=O)[nH]1 [B.161] | 2.7
Cc1c(S(=O)(=O)c2ccc3[nH]ncc3c2)cc(C(=O)NCc2ccnn2CC(F)F)n1C [B.162] | 2.2
Cc1c(S(=O)(=O)c2ccc3[nH]ncc3c2)cc(C(=O)NCc2cnn3ccccc23)n1C [B.163] | 3
Cc1cc(C)n(C)c(=O)c1CNC(=O)c1cc(S(=O)(=O)c2ccc3[nH]ncc3c2)c(C)n1C [B.164] | 0.85
Cc1c(S(=O)(=O)c2ccc3[nH]ncc3c2)cc(C(=O)NCc2ccnn2C(F)F)n1C [B.165] | 14
CCn1nccc1CNC(=O)c1cc(S(=O)(=O)c2ccc3[nH]ncc3c2)c(C)n1C [B.166] | 0.95
Cc1c(S(=O)(=O)c2ccc3[nH]ncc3c2)cc(C(=O)NCc2ccnn2C2CC2)n1C [B.167] | 7.8

Structure (SMILES) | IC50 [nM]
Cc1c(S(=O)(=O)c2ccc3[nH]ncc3c2)cc(C(=O)NCc2ccn(C3CC3)n2)n1C [B.168] | 172
Cc1c(S(=O)(=O)c2ccc3[nH]ncc3c2)cc(C(=O)NC(=O)c2ccccc2)n1C [B.169] | 3.2
Cc1c(S(=O)(=O)c2ccc3[nH]ncc3c2)cc(C(=O)NCc2c(Cl)ccc(=O)n2C)n1C [B.174] | 0.7
Cc1c(S(=O)(=O)c2ccc3[nH]nc(F)c3c2)cc(C(=O)NCc2c[nH]c(=O)c3cccnc23)n1C [B.175] | 3.3
COc1ccc(CNC(=O)c2cc(S(=O)(=O)c3ccc4[nH]nc(F)c4c3)c(C)n2C)c(C(F)(F)F)n1 [B.176] | 7
Cc1c(S(=O)(=O)c2ccc3[nH]ncc3c2)cc(C(=O)NCc2ccc(=O)n(C)c2)n1C [B.177] | 138
Cc1c(S(=O)(=O)c2ccc3[nH]ncc3c2)cc(C(=O)NCc2c(F)ccc(=O)n2C)n1C [B.179] | < 0.15
Cc1c(S(=O)(=O)c2ccc3[nH]ncc3c2)cc(C(=O)NCc2c(Cl)ccn(C)c2=O)n1C [B.180] | < 0.15
Cc1c(S(=O)(=O)c2ccc3[nH]ncc3c2)cc(C(=O)NCc2c(F)ccn(C)c2=O)n1C [B.181] | 0.23
Cc1c(S(=O)(=O)c2ccc3c(cnn3C)c2)cc(C(=O)NCc2c(F)ccnc2N2CCC(C(=O)NS(C)(=O)=O)C2)n1C (centres unmarked) [B.182] | < 0.15
Cc1c(S(=O)(=O)c2cccc(C#N)c2)cc(C(=O)NCc2c(Cl)cnn2C)n1C [B.183] | 17
Cc1c(S(=O)(=O)c2cc(Cl)c3[nH]ncc3c2)cc(C(=O)NCc2c(Cl)cnn2C)n1C [B.184] | < 0.15
Cc1c(S(=O)(=O)c2ccc3[nH]ncc3c2)cc(C(=O)NCc2c(Cl)cnn2C)n1CC(F)(F)F [B.185] | 3.9
Cc1c(S(=O)(=O)c2ccc3[nH]ncc3c2)cc(C(=O)NCc2c(Cl)cnn2C)n1CC(F)F [B.186] | 1.1
Cc1c(S(=O)(=O)c2ccc3[nH]ncc3c2)cc(C(=O)NCc2c(Cl)cc[nH]c2=O)n1C [B.187] | 0.61
Cc1c(S(=O)(=O)c2ccc3[nH]ncc3c2)cc(C(=O)NCc2c(Cl)cnn2C)n1C1CC1 [B.188] | 1.6
Cc1c(S(=O)(=O)c2ccc3[nH]ncc3c2)cc(C(=O)NCc2[nH]c(=O)ccc2F)n1C [B.189] | 0.37
Cc1c(S(=O)(=O)c2ccc3[nH]ncc3c2)cc(C(=O)NCc2[nH]c(=O)ccc2Cl)n1C [B.190] | 3.3
Cn1ncc(Cl)c1CNC(=O)c1cc(S(=O)(=O)c2ccc3[nH]ncc3c2)c2n1CCC2 [B.191] | 8.6
Cn1ncc(Cl)c1CNC(=O)c1cc(S(=O)(=O)c2cccc(C#N)c2)c2n1CCC2 [B.192] | 98
Cc1c(S(=O)(=O)c2cc(Cl)cc(C#N)c2)cc(C(=O)NCc2c(Cl)cnn2C)n1C [B.193] | 6.4
COCCn1c(C(=O)NCc2c(Cl)cnn2C)cc(S(=O)(=O)c2cc(Cl)c3[nH]ncc3c2)c1C [B.194] | 1.1
Cc1c(S(=O)(=O)c2cc(Cl)c3[nH]ncc3c2)cc(C(=O)NS(=O)(=NCC(F)(F)F)c2ccccc2)n1C (centres unmarked) [B.195] | 12
Cc1c(S(=O)(=O)c2ccc3[nH]ncc3c2)cc(C(=O)NCCCOc2ncc(F)cn2)n1C [B.196] | 18
Cc1c(S(=O)(=O)c2ccc3[nH]ncc3c2)cc(C(=O)NCC2(COc3ncc(F)cn3)CC2)n1C [B.197] | 2.7
